Experimental data: paper PMC12369603, “Functional characterization of antennae-enriched chemosensory protein 4 in emerald ash borer, Agrilus planipennis” (PeerJ, 2025)
Where “and” joins values, the source holds several entries; their conditions need not be identical. Equal entries are not always repeated. Where two headings read alike, the source gives them in different places.

Biological target: recombinant AplaCSP4 (Agrilus planipennis chemosensory protein 4) (Agrilus planipennis, UniProt A0A1W4XLL0)
Assay: biochemical
Format: binding
Settings: for binding to AplaCSP4 (in words): discussion of fluorescence competitive binding results; for Competitive binding capability(%) / activity at 2 µM / activity at 4 µM / activity at 6 µM / activity at 8 µM / activity at 10 µM / activity at 12 µM: three replicate columns, 100 at 0 μM; for Kd: read-out: K D ±SE (dissociation constant)
Procedure: Specifically, the binding affinities of AplaCSP4 for 43 volatile organic compounds were determined using F-380 fluorescence spectrophotometer (Tianjin, China) with a 10 nm slits and a 1 cm light path. These 43 substances are common green leaf volatiles, among which 16 volatiles originate from the ash tree. […]

[1] = ligand concentration 2 μM, 2 µM
[2] = ligand concentration 4 μM, 4 µM
[3] = ligand concentration 6 μM, 6 µM
[4] = ligand concentration 8 μM, 8 µM
[5] = ligand concentration 10 μM, 10 µM
[6] = ligand concentration 12 μM, 12 µM
[7] = pH 7.4, ligand concentration 2 μM, read-out: Competitive binding capability(%)
[8] = pH 7.4, ligand concentration 4 μM, read-out: Competitive binding capability(%)
[9] = pH 7.4, ligand concentration 6 μM, read-out: Competitive binding capability(%)
[10] = pH 7.4, ligand concentration 8 μM, read-out: Competitive binding capability(%)
[11] = pH 7.4, ligand concentration 10 μM, read-out: Competitive binding capability(%)
[12] = pH 7.4, ligand concentration 12 μM, read-out: Competitive binding capability(%)
[13] = AplaCSP4 and 1-NPN each 2 µM, ligands with minimal binding single experiment, read-out: K D ±SE, “–” = no binding (IC50 >16 μM, KD not calculated)

Sequence of recombinant AplaCSP4 (Agrilus planipennis chemosensory protein 4) (A0A1W4XLL0 entry or part of it): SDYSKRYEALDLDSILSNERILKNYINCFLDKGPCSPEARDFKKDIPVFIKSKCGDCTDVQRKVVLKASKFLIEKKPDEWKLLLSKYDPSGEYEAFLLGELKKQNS

## C=CC(C)(O)CCC=C(C)C (centres unmarked) [Linalool]
  IC50: > 16 µM

## COC(=O)c1ccccc1 [Methyl benzoate]
  IC50: > 16 µM

## COC(=O)c1ccccc1O [Methyl salicylate]
  IC50: > 16 µM

## C=CC(=C)CCC=C(C)C [Myrcene]
  binding to AplaCSP4 (in words): binding capabilities
  Kd: 9.9 ± 0.34 µM
[1]
  Competitive binding capability(%): 93.6207% and 95.326%
[2]
  Competitive binding capability(%): 85.4868% and 89.2675%
[3]
  Competitive binding capability(%): 76.2875% and 80.8277%
[4]
  Competitive binding capability(%): 67.6403% and 72.2022%
[5]
  Competitive binding capability(%): 61.2276% and 66.6056%
[6]
  Competitive binding capability(%): 55.297% and 60.7518%
[7]
  activity at 2 µM: 93.4%
[8]
  activity at 4 µM: 87%
[9]
  activity at 6 µM: 75.3%
[10]
  activity at 8 µM: 66.9%
[11]
  activity at 10 µM: 61.1%
[12]
  activity at 12 µM: 54.9%

## CCCCCCCCC=O [Nonanal]
[13]
  IC50: > 16 µM

## C=CC(C)=CCC=C(C)C [Ocimene]
AplaCSP4 and 1-NPN each 2 µM, 50 mM Tris–HCl pH 7.4, KD = IC50/(1+[1-NPN]/K1-NPN), mean of three experiments
  Kd: 10.4 ± 1.11 µM
  binding to AplaCSP4 (in words): binding capabilities
Ligand concentration 2 μM
  Competitive binding capability(%): 93.4067% and 90.0634% and 92.7212%
Ligand concentration 4 μM
  Competitive binding capability(%): 88.4911% and 81.8854% and 85.2152%
Ligand concentration 6 μM
  Competitive binding capability(%): 82.5386% and 75.7215% and 76.2043%
Ligand concentration 8 μM
  Competitive binding capability(%): 75.2984% and 68.1994% and 63.8599%
Ligand concentration 10 μM
  Competitive binding capability(%): 69.6898% and 60.3453% and 57.9099%
Ligand concentration 12 μM
  Competitive binding capability(%): 63.4481% and 55.0655% and 52.0519%

## CCCCCCCC=O [Octanal]
[13]
  IC50: > 16 µM

## N#CCc1ccccc1 [Phenylacetonitrile]
  IC50: > 16 µM

## CCCCCCCCCCCCCC [Tetradecane]
[13]
  IC50: > 16 µM

## CCCCC=O [Valeraldehyde]
[13]
  IC50: > 16 µM

## CC/C=C\CCO [cis-3-Hexen-1-ol]
  IC50: > 16 µM

## CC/C=C\CCOC(C)=O [cis-3-Hexenyl acetate]
[13]
  IC50: > 16 µM

## CC/C=C\CCOC(=O)c1ccccc1 [cis-3-Hexenyl benzoate]
[1]
  Competitive binding capability(%): 79.0652% and 72.7217%
[2]
  Competitive binding capability(%): 62.6633% and 59.3339%
[3]
  Competitive binding capability(%): 52.3441% and 49.0753%
[4]
  Competitive binding capability(%): 45.5407% and 42.369%
[5]
  Competitive binding capability(%): 38.572% and 36.9717%
[6]
  Competitive binding capability(%): 34.5851% and 32.8537%
[7]
  activity at 2 µM: 76.1%
[8]
  activity at 4 µM: 61.8%
[9]
  activity at 6 µM: 51.7%
[10]
  activity at 8 µM: 44.5%
[11]
  activity at 10 µM: 39.2%
[12]
  activity at 12 µM: 35%
  Kd: 4.29 ± 0.18 µM

## CC/C=C\CCOC(=O)C(C)C [cis-3-Hexenyl isobutyrate]
[13]
  IC50: > 16 µM

## CC/C=C\CCOC(=O)CC(C)C [cis-3-Hexenyl isovalerate]
[13]
  IC50: > 16 µM

## CCCCCCCC [n-Octane]
[1]
  Competitive binding capability(%): 86.2111% and 85.0437%
[2]
  Competitive binding capability(%): 71.3083% and 70.0543%
[3]
  Competitive binding capability(%): 57.8901% and 54.2819%
[4]
  Competitive binding capability(%): 46.7227% and 42.7241%
[5]
  Competitive binding capability(%): 38.967% and 35.7057%
[6]
  Competitive binding capability(%): 32.7961% and 31.347%
pH 7.4, read-out: Competitive binding capability(%), ligand concentration 2 μM
  activity at 2 µM: 86%
pH 7.4, read-out: Competitive binding capability(%), ligand concentration 4 μM
  activity at 4 µM: 67.9%
pH 7.4, read-out: Competitive binding capability(%), ligand concentration 6 μM
  activity at 6 µM: 56.4%
pH 7.4, read-out: Competitive binding capability(%), ligand concentration 8 μM
  activity at 8 µM: 45%
pH 7.4, read-out: Competitive binding capability(%), ligand concentration 10 μM
  activity at 10 µM: 38.2%
pH 7.4, read-out: Competitive binding capability(%), ligand concentration 12 μM
  activity at 12 µM: 31.4%
  Kd: 4.83 ± 0.11 µM

## CCCC/C=C/C=O [trans-2-Heptenal]
[13]
  IC50: > 16 µM

## CCC/C=C/C=O [trans-2-Hexenal]
  IC50: > 16 µM

## CCC/C=C/COC(C)=O [trans-2-Hexenyl acetate]
[13]
  IC50: > 16 µM

## C=C1CC/C=C(\C)CC[C@@H]2[C@@H]1CC2(C)C [β-Caryophyllene]
  IC50: > 16 µM

## (±)-Citronellal
[13]
  IC50: > 16 µM
